{"source": "ChEMBL document CHEMBL1132909", "about": "(Bioorg Med Chem Lett, 2000)", "data": [{"molecular_target": "Neuraminidase (Influenza A virus (A/Puerto Rico/8/1934(H1N1)), UniProt P03468)", "sequence (P03468 whole entry)": "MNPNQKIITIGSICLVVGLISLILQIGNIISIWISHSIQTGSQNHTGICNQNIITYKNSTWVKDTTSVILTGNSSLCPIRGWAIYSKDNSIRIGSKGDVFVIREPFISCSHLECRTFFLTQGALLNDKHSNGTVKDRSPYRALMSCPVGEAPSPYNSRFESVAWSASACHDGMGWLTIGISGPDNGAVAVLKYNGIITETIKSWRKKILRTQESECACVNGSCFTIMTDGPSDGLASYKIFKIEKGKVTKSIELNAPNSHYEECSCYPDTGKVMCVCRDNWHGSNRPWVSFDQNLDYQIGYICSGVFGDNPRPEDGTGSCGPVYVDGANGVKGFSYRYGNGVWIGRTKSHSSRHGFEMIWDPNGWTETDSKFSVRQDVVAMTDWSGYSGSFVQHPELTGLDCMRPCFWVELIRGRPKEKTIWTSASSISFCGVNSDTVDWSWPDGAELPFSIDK", "test": "Inhibition of neuraminidase in Influenza A", "format": "functional", "units": {"IC50": "nM"}, "values": [{"compound": "CC(=O)N[C@H]1[C@H](N2CCCCCC2)C=C(C(=O)O)C[C@@H]1N", "IC50": 35}, {"compound": "CC(=O)N[C@H]1[C@H](N2CCN(C)CC2)C=C(C(=O)O)C[C@@H]1N", "IC50": 1900}, {"compound": "CC(=O)N[C@H]1[C@H](N2CCOCC2)C=C(C(=O)O)C[C@@H]1N", "IC50": 260}, {"compound": "CC(=O)N[C@H]1[C@H](N2CCC2)C=C(C(=O)O)C[C@@H]1N", "IC50": 1000}, {"compound": "CC(=O)N[C@H]1[C@H](N2CCC(C)CC2)C=C(C(=O)O)C[C@@H]1N", "IC50": 51}, {"compound": "CCC1CCN([C@@H]2C=C(C(=O)O)C[C@H](N)[C@H]2NC(C)=O)CC1", "IC50": 52}, {"compound": "CC(=O)N[C@H]1[C@H](N2C3CCCC2CC3)C=C(C(=O)O)C[C@@H]1N", "IC50": 32}, {"compound": "CC(=O)N[C@H]1[C@H](N2CCCCC2)C=C(C(=O)O)C[C@@H]1N", "IC50": 25}, {"compound": "CCC1(CC)CN([C@@H]2C=C(C(=O)O)C[C@H](N)[C@H]2NC(C)=O)C1", "IC50": 265}, {"compound": "CC(=O)N[C@H]1[C@H](N2CCCCC[C@@H]2CO)C=C(C(=O)O)C[C@@H]1N", "IC50": 8}, {"compound": "CCCC1CCN([C@@H]2C=C(C(=O)O)C[C@H](N)[C@H]2NC(C)=O)CC1", "IC50": 40}, {"compound": "CC(=O)N[C@H]1[C@H](N2CCCCCCCC2)C=C(C(=O)O)C[C@@H]1N", "IC50": 75}, {"compound": "CC(=O)N[C@H]1[C@H](N2CCCCCCC2)C=C(C(=O)O)C[C@@H]1N", "IC50": 26}, {"compound": "CC(=O)N[C@H]1[C@H](N2CCCC2)C=C(C(=O)O)C[C@@H]1N", "IC50": 310}]}]}
